These results are taken from patent US20230322846A9, “NEUROACTIVE STEROIDS AND THEIR METHODS OF USE” (SAGE THERAPEUTICS, INC., priority 2018, published 2023).

Structures are written as SMILES. Where only a bound is given, the exact number is not on record here.

The target in this test is [35S]-TBPS binding, rat brain cortical membranes. As to the kind of experiment: Steroid inhibition of [35S]-TBPS binding. The note with it: 3 nM [35S]-TBPS, in the presence of 5 mM GABA. The essentials: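 In the presence of […], compounds (DMSO 0.5% final) competed with 3 nM [35S]-TBPS for Sprague-Dawley rat cortical membranes, pH 7.4 phosphate buffer, 90 min, room temperature. Filtration and scintillation counting; specific binding defined by […]; IC50 and maximal inhibition fitted per experiment, averaged as mean ± SEM.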

As to `COC[C@@]1(O)CC[C@H]2[C@H](CC[C@@H]3[C@@H]2CC[C@]2(C)[C@@H]([C@@H](C)Cn4nccc4C#N)CC[C@@H]32)C1` [Example 37, 1-((R)-2-((3R,5R,8R,9R,10S,13S,14S,17R)-3-hydroxy-3-(methoxymethyl)-13-methylhexadecahydro-1H-cyclopenta[a]phenanthren-17-yl)propyl)-1H-pyrazole-5-carbonitrile], the half-maximal inhibitory concentration (IC50) was less than 0.1 µM.
With `C[C@@H]([C@H]1CC[C@H]2[C@@H]3CC[C@@H]4C[C@](C)(O)CC[C@@H]4[C@H]3CC[C@]12C)n1ncc(C#N)c1N` [Example 155, 5-amino-1-((S)-1-((3R,5R,8R,9R,10S,13S,14S,17S)-3-hydroxy-3,13-dimethylhexadecahydro-1H-cyclopenta[a]phenanthren-17-yl)ethyl)-1H-pyrazole-4-carbonitrile] the figure was 1 to 10 µM; with `CCOC[C@@]1(O)CC[C@H]2[C@H](CC[C@@H]3[C@@H]2CC[C@]2(C)[C@@H]([C@@H](C)Cn4cc(C#N)cn4)CC[C@@H]32)C1` [Example 269, 1-((R)-2-((3R,5R,8R,9R,10S,13S,14S,17R)-3-(ethoxymethyl)-3-hydroxy-13-methylhexadecahydro-1H-cyclopenta[a]phenanthren-17-yl)propyl)-1H-pyrazole-4-carbonitrile], less than 0.1 µM.
`COC[C@@]1(O)CC[C@H]2[C@@H](CC[C@@H]3[C@@H]2CC[C@]2(C)[C@@H](CCn4nnnc4C)CC[C@@H]32)C1` [Example 296, (3R,5S,8R,9R,10S,13R,14S,17R)-3-(methoxymethyl)-13-methyl-17-(2-(5-methyl-1H-tetrazol-1-yl)ethyl)hexadecahydro-1H-cyclopenta[a]phenanthren-3-ol]: the IC50 is less than 0.1 µM.
Consider `C[C@@]1(O)CC[C@H]2[C@H](CC[C@@H]3[C@@H]2CC[C@]2(C)[C@@H](CN4CCCCC4=O)CC[C@@H]32)C1` [Example 1, 1-(((3R,5R,8R,9R,10S,13S,14S,17S)-3-hydroxy-3,13-dimethylhexadecahydro-1H-cyclopenta[a]phenanthren-17-yl)methyl)piperidin-2-one], for which the IC50 lay within 1 to 10 µM.
With `CCOC[C@@]1(O)CC[C@@]2(C)[C@H](CC[C@@H]3[C@@H]2CC[C@]2(C)[C@@H]([C@@H](C)NS(=O)(=O)c4ccc(C#N)cn4)CC[C@@H]32)C1` [Example 77, 5-cyano-N—((R)-1-((3R,5R,8R,9S,10S,13S,14S,17S)-3-(ethoxymethyl)-3-hydroxy-10,13-dimethylhexadecahydro-1H-cyclopenta[a]phenanthren-17-yl)ethyl)pyridine-2-sulfonamide] the figure was less than 0.1 µM; with `C[C@H]([C@H]1CC[C@H]2[C@@H]3CC[C@@H]4C[C@](C)(O)CC[C@@H]4[C@H]3CC[C@]12C)N(C)C(=O)c1ccccc1` [Example 20, N-((1R)-1-((3R,5R,9R,10S,13S,14S,17S)-3-hydroxy-3,13-dimethylhexadecahydro-1H-cyclopenta[a]phenanthren-17-yl)ethyl)-N-methylbenzamide], 0.1 to 1 µM; with `C[C@@H](NC(=O)c1ccc(F)cn1)[C@H]1CC[C@H]2[C@@H]3CC[C@@H]4C[C@](C)(O)CC[C@@H]4[C@H]3CC[C@]12C` [Example 127], 0.1 to 1 µM.
With `COC[C@@]1(O)CC[C@@]2(C)[C@H](CC[C@@H]3[C@@H]2CC[C@@]2(C)[C@H]3CC[C@]2(O)[C@H](C)Cn2cc(C#N)cn2)C1` [Example 352, 1-((R)-2-((3R,5R,8R,9S,10S,13S,14S,17S)-3,17-dihydroxy-3-(methoxymethyl)-10,13-dimethylhexadecahydro-1H-cyclopenta[a]phenanthren-17-yl)propyl)-1H-pyrazole-4-carbonitrile] the figure was 1 to 10 µM; with `COC[C@@]1(O)CC[C@H]2[C@H](CC[C@@H]3[C@@H]2CC[C@]2(C)[C@@H]([C@H](C)Cn4nccc4C#N)CC[C@@H]32)C1` [Example 34, 1-((S)-2-((3R,5R,8R,9R,10S,13S,14S,17R)-3-hydroxy-3-(methoxymethyl)-13-methylhexadecahydro-1H-cyclopenta[a]phenanthren-17-yl)propyl)-1H-pyrazole-5-carbonitrile], less than 0.1 µM.
The figure for `COC[C@@]1(O)CC[C@H]2[C@H](CC[C@@H]3[C@@H]2CC[C@]2(C)[C@@H](CCn4nccc4C#N)CC[C@@H]32)C1` [Example 88, 1-(2-((3R,5R,8R,9R,10S,13R,14S,17R)-3-hydroxy-3-(methoxymethyl)-13-methylhexadecahydro-1H-cyclopenta[a]phenanthren-17-yl)ethyl)-1H-pyrazole-5-carbonitrile] is less than 0.1 µM.
Turning to `C[C@H](NC(=O)c1cccnc1)[C@H]1CC[C@H]2[C@@H]3CC[C@@H]4C[C@](C)(O)CC[C@@H]4[C@H]3CC[C@]12C` [Example 30, N—((S)-1-((3R,5R,8R,9R,10S,13S,14S,17S)-3-hydroxy-3,13-dimethylhexadecahydro-1H-cyclopenta[a]phenanthren-17-yl)ethyl)nicotinamide], the IC50 fell in the range of 1 to 10 µM.
With `CCOC[C@@]1(O)CC[C@@]2(C)[C@H](CC[C@@H]3[C@@H]2CC[C@]2(C)[C@@H]([C@@H](C)N(C)S(=O)(=O)c4ccc(C#N)cn4)CC[C@@H]32)C1` [Example 78, 5-cyano-N—((R)-1-((3R,5R,8R,9S,10S,13S,14S,17S)-3-(ethoxymethyl)-3-hydroxy-10,13-dimethylhexadecahydro-1H-cyclopenta[a]phenanthren-17-yl)ethyl)-N-methylpyridine-2-sulfonamide] the figure was less than 0.1 µM; with `CCOC[C@@]1(O)CC[C@H]2[C@H](CC[C@@H]3[C@@H]2CC[C@]2(C)[C@@H]([C@@H](C)Cn4nnc(C)n4)CC[C@@H]32)C1` [Example 290, (3R,5R,8R,9R,10S,13S,14S,17R)-3-(ethoxymethyl)-13-methyl-17-((R)-1-(5-methyl-2H-tetrazol-2-yl)propan-2-yl)hexadecahydro-1H-cyclopenta[a]phenanthren-3-ol], less than 0.1 µM; with `C[C@@H](Nc1ccccc1)[C@H]1CC[C@H]2[C@@H]3CC[C@@H]4C[C@](C)(O)CC[C@@H]4[C@H]3CC[C@]12C` [Example 25, (3R,5R,8R,9R,10S,13S,14S,17S)-3,13-dimethyl-17-((R)-1-(phenylamino)ethyl)hexadecahydro-1H-cyclopenta[a]phenanthren-3-ol], less than 0.1 µM.
With `COC[C@@]1(O)CC[C@H]2[C@H](CC[C@@H]3[C@@H]2CC[C@]2(C)[C@@H](CNC(=O)c4ccccc4)CC[C@@H]32)C1` [Example 16, N-(((3R,5R,8R,9R,10S,13S,14S,17S)-3-hydroxy-3-(methoxymethyl)-13-methylhexadecahydro-1H-cyclopenta[a]phenanthren-17-yl)methyl)benzamide] the figure was less than 0.1 µM; with `CC[C@]12CC[C@H]3[C@@H](CC[C@@H]4C[C@](C)(O)CC[C@@H]43)[C@@H]1CC[C@@H]2[C@H](C)Cn1cc(C#N)cn1` [Example 318, 1-((S)-2-((3R,5R,8R,9R,10S,13S,14S,17R)-13-ethyl-3-hydroxy-3-methylhexadecahydro-1H-cyclopenta[a]phenanthren-17-yl)propyl)-1H-pyrazole-4-carbonitrile], less than 0.1 µM; with `CC(C)C[C@@]1(O)CC[C@H]2[C@H](CC[C@@H]3[C@@H]2CC[C@]2(C)[C@@H]([C@H](C)Cn4cc(C#N)cn4)CC[C@@H]32)C1` [Example 300, 1-((S)-2-((3S,5R,8R,9R,10S,13S,14S,17R)-3-hydroxy-3-isobutyl-13-methylhexadecahydro-1H-cyclopenta[a]phenanthren-17-yl)propyl)-1H-pyrazole-4-carbonitrile], less than 0.1 µM.
`C[C@H]([C@H]1CC[C@H]2[C@@H]3CC[C@@H]4C[C@](C)(O)CC[C@@H]4[C@H]3CC[C@]12C)n1nccn1` [Example 158, (3R,5R,8R,9R,10S,13S,14S,17S)-17-((R)-1-(2H-1,2,3-triazol-2-yl)ethyl)-3,13-dimethylhexadecahydro-1H-cyclopenta[a]phenanthren-3-ol]: the IC50 lay in the range of 0.1 to 1 µM.
With `COc1cccc(C(=O)N[C@@H](C)[C@H]2CC[C@H]3[C@@H]4CC[C@@H]5C[C@](C)(O)CC[C@@H]5[C@H]4CC[C@]23C)c1` [Example 105] the figure was 1 to 10 µM.
The figure for `C[C@@]1(O)CC[C@H]2[C@H](CC[C@@H]3[C@@H]2CC[C@]2(C)[C@@H]([C@H](C#N)Cn4cc(C#N)cn4)CC[C@@H]32)C1` [Example 355, 1-((S)-2-cyano-2-((3R,5R,8R,9R,10S,13S,14S,17R)-3-hydroxy-3,13-dimethylhexadecahydro-1H-cyclopenta[a]phenanthren-17-yl)ethyl)-1H-pyrazole-4-carbonitrile] is less than 0.1 µM.
Turning to `CC[C@@]1(O)CC[C@H]2[C@H](CC[C@@H]3[C@@H]2CC[C@]2(C)[C@@H]([C@H](C)Cn4ccc(C#N)n4)CC[C@@H]32)C1` [Example 271, 1-((S)-2-((3R,5R,8R,9R,10S,13S,14S,17R)-3-ethyl-3-hydroxy-13-methylhexadecahydro-1H-cyclopenta[a]phenanthren-17-yl)propyl)-1H-pyrazole-3-carbonitrile], the IC50 was less than 0.1 µM.
Consider `CCOC[C@@]1(O)CC[C@H]2[C@H](CC[C@@H]3[C@@H]2CC[C@]2(C)[C@@H]([C@H](C)Cc4ccc(C)nc4C#N)CC[C@@H]32)C1` [Example 415], for which the IC50 was less than 0.1 µM.
